Data as given in patent US11072599B2, “Pyrazole compounds and uses thereof” (Yissum Research Development Company of the Hebrew …, priority 2017, dated 2021).

Test system: RKO colorectal cells
Experiment: Dose-response compound screen in RKO cells (Western blot, indicators of CKIα inhibition)
Type: cell-based
Conditions: 16 hours at 37° C., 0.167-1.5 μM or 0.11-1 μM, ImageJ, 1 = mock (DMSO)-treated cells
Method: RKO cells were incubated for 16 hours at 37° C. with indicated concentrations of the compounds, or with the vehicle (DMSO) alone (−) and analyzed by Western Blot. Shown are Western Blot signals of β-catenin and p53 stabilization and phosphorylation of H2AX (γH2AX), a marker of DNA damage.
RKO colorectal cells were incubated with serial dilutions of each of the compounds (at a concentration range of 0.167-1.5 μM or 0.11-1 μM in DMSO) for 16 hours at 37° C. Cells were washed with PBS and cell pellets were incubated with ice cold protein lysis buffer containing protease inhibitor cocktail ( 1/200; Calbiochem) and phosphatase inhibitors (20 mM p-nitrophenyl phosphate (PNPP), 20 mM β-glycerophosphate and 300 nM okadaic acid). Western blot (WB) analysis was performed by means of standard techniques. Blots were incubated with antibodies detecting β-catenin ( 1/2,500; BD Transduction), p53 (DO-1&1801 hybridoma mix; dilution of 1:20 of supernatants from each), CKIα (C-19; 1/1,000; Santa Cruz Biotechnology) and phospho-histone H2AX (S139; 1/1,000; Millipore). Secondary antibodies were HRP-linked goat anti-mouse, goat anti-rabbit and rabbit anti-goat antibodies (all 1/10,000; Jackson). Blots were developed using ECL (GE Healthcare). Signal intensities corresponding to β-catenin and p53 stabilization and phosphorylation of H2AX (γH2AX—a marker of DNA damage)-indicators of CKIα inhibition (Elyada et al., Nature […]), were analyzed by the ImageJ software. Relative signal intensities are depicted in Table 1 (see also in FIG. 1), where values of 1 correspond to signals of mock (DMSO)-treated cells.

SMILES | H2AX phosphorylation (γH2AX, relative signal intensity) | p53 stabilization (relative signal intensity) | β-Catenin stabilization (relative signal intensity)
Cc1ccnn1[C@H]1CC[C@H](Nc2ncc(Cl)c(-c3cnn(C)c3CC3CC3)n2)CC1 [A102] | 1 | 1 | 4
Cn1ncc(-c2cc(O)nc(N[C@H]3CC[C@H](N)CC3)n2)c1CC1CC1 [A108, 2-(((1r,4r)-4-aminocyclohexyl)amino)-6-(5-(cyclopropylmethyl)-1-methyl-1H-pyrazol-4-yl)pyrimidin-4-ol] | 1 | 1 | 9
Cn1ncc(-c2cccc(N[C@H]3CC[C@H](N)CC3)n2)c1CC1CC1 [A105, (1r,4r)-N1-(6-(5-(cyclopropylmethyl)-1-methyl-1H-pyrazol-4-yl)pyridin-2-yl)cyclohexane-1,4-diamine] | 1 | 2 | 5
Cn1ncc(-c2cc(N[C@H]3CC[C@H](N)CC3)ncn2)c1CC1CC1 [A106, (1r,4r)-N1-(6-(5-(cyclopropylmethyl)-1-methyl-1H-pyrazol-4-yl)pyrimidin-4-yl)cyclohexane-1,4-diamine] | 1 | 1 | 9
Cn1ncc(-c2cc(N[C@H]3CC[C@H](N)CC3)ncc2Cl)c1CC1CC1 [A104, (1r,4r)-N1-(5-chloro-4-(5-(cyclopropylmethyl)-1-methyl-1H-pyrazol-4-yl)pyridin-2-yl)cyclohexane-1,4-diamine] | 20 | 20 | 9
Cn1ncc(-c2cc(N[C@H]3CC[C@H](N)CC3)nc(N)n2)c1CC1CC1 [A107, N4-((1r,4r)-4-aminocyclohexyl)-6-(5-(cyclopropylmethyl)-1-methyl-1H-pyrazol-4-yl)pyrimidine-2,4-diamine] | 1 | 2 | 4
